25 compounds from US20230278981A1, “DICHLOROPHENOL HSD17B13 INHIBITORS AND USES THEREOF” (INIPHARM, INC., priority 2020, published 2023) can be followed below.

The target in the assay is HSD17B13 (Homo sapiens (Human), UniProt Q7Z5P4). Kind of assay: LC/MS estrone detection assay: conversion of estradiol to estrone by HSD17B13. In kind it is biochemical. Conditions: 4 μM estradiol, 6 mM NAD+, 30 nM HSD17B13 enzyme (E. coli expressed His-tagged), 2 hours at 26.5° C. The method, then: The liquid chromatography/mass spectrometry (LC/MS) estrone detection assay monitors the conversion of estradiol to estrone by HSD17B13. This assay was undertaken in a 96wp format (Eppendorf deep well Plate 96/500) in an 80 μl reaction volume containing: 4 μM of Estradiol (E2; Cayman; Ser. No. 10/006,315), 6 mM NAD+(Sigma; #N0623) and 30 nM HSD17B13 enzyme (in-house; E. coli expressed His-tagged, purified, soluble protein) in a reaction containing […] potassium phosphate buffer pH 7.4, with 0.5% vehicle (DMSO). Reactions were incubated for 2 hours at 26.5° C., and estradiol (E2) conversion to estrone (E1) was quantitated by LC-MS/MS based analyte detection for both E2 and E1 using LCMS grade reagents.
Sequence of HSD17B13 (Q7Z5P4 20-300): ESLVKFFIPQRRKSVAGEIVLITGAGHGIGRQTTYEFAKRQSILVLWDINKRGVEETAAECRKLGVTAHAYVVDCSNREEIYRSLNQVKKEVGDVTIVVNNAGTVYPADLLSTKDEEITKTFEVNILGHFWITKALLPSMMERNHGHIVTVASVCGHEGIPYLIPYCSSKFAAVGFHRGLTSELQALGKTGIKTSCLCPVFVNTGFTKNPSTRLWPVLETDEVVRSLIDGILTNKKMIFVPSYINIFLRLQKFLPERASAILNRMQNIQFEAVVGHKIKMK
Reactions were terminated by the addition of two volumes of acetonitrile (MeCN; LCMS grade; CAS #75/05/8) containing deuterated (D4)-E1 used as internal standard (Clear Synth; #CS-T-54273; 500 ng/mL final concentration). Samples were applied to pre-prepared Bond Elut-C18 extraction cartridges (3 mL; Agilent; Ser. No. 12/102,028), washed and eluted in MeCN. Eluates were dried under nitrogen and re-suspended in 60% methanol (LCMS grade methanol; CAS #67/56/1) before submission for analysis. Aqueous linearity for E2 and E1 were included for quantification.
Analysis of samples was undertaken on a XBridge BEH C18 column (Waters; #186003033) using 0.1% Diethyl Amine in MeCN (mobile phase A; DEA CAS #109-89-7) and 0.1% Diethyl Amine in milli-Q water (mobile phase B) in a 3 min gradient allowing 25% B. Analytes were detected in negative mode using MRM analysis, with E2 having a RT of 1.85 min and E1 having a RT of 2 min. Activity of the enzyme, in the absence of NAD^+, was used to evaluate specificity of conversion. Enzyme activity in the presence of test samples was expressed as a percentage of the uninhibited enzyme activity, and plotted versus inhibitor concentration. Non-linear regression was performed using a four-parameter logistic model and GraphPad Prism software (GraphPad Software, La Jolla, Calif.). All assessments were undertaken in duplicate evaluations and pooled during extraction process and subsequently injected as duplicates for LC-MS/MS analysis.

Compound `O=C(Nc1cccc2ncn([C@@H]3C[C@H]3c3ccccc3)c(=O)c12)c1cc(Cl)c(O)c(Cl)c1` (racemic) [Example 102, Rac-3,5-dichloro-4-hydroxy-N-(4-oxo-3-((1R,2S)-2-phenylcyclopropyl)-3,4-dihydroquinazolin-5-yl)benzamide] registered an IC50 of 1000 to 10000 nM. As for `O=C(Nc1cccc2ncn([C@@H]3CC[C@H]3c3ccccc3)c(=O)c12)c1cc(Cl)c(O)c(Cl)n1` (racemic) [Example 175, rac-4,6-dichloro-5-hydroxy-N-(4-oxo-3-((1R,2S)-2-phenylcyclobutyl)-3,4-dihydroquinazolin-5-yl)picolinamide], the figure is 100 to 500 nM. For the compound `O=C(Nc1cccc2ncn(Cc3ccccc3)c(=O)c12)c1cc(Cl)c(O)c(Cl)c1` [Example 1, N-(3-benzyl-4-oxo-3,4-dihydroquinazolin-5-yl)-3,5-dichloro-4-hydroxybenzamide], the IC50 lay in the range of 100 to 500 nM. On to `O=C(Nc1cccc2ncn(Cc3ccccc3OC(F)(F)F)c(=O)c12)c1cc(Cl)c(O)c(Cl)c1` [Example 2, 3,5-dichloro-4-hydroxy-N-(4-oxo-3-(2-(trifluoromethoxy)benzyl)-3,4-dihydroquinazolin-5-yl)benzamide], for which the IC50 is no more than 100 nM.

On to `O=C(Nc1cccc2ncn(CC3CC3)c(=O)c12)c1cc(Cl)c(O)c(Cl)c1` [Example 3, 3,5-dichloro-N-(3-(cyclopropylmethyl)-4-oxo-3,4-dihydroquinazolin-5-yl)-4-hydroxybenzamide], for which the IC50 fell in the range of 100 to 500 nM. As for `O=C(Nc1cccc2ncn(Cc3cc[nH]c(=O)c3)c(=O)c12)c1cc(Cl)c(O)c(Cl)c1` [Example 4, 3,5-dichloro-4-hydroxy-N-(3-((2-hydroxypyridin-4-yl)methyl)-4-oxo-3,4-dihydroquinazolin-5-yl)benzamide], the figure is 1000 to 10000 nM; as for `COc1ccccc1Cn1cnc2cccc(NC(=O)c3cc(Cl)c(O)c(Cl)c3)c2c1=O` [Example 5, 3,5-dichloro-4-hydroxy-N-(3-(2-methoxybenzyl)-4-oxo-3,4-dihydroquinazolin-5-yl)benzamide], 100 to 500 nM; as for `O=C(Nc1cccc2ncn(Cc3ccc(C(F)(F)F)cc3)c(=O)c12)c1cc(Cl)c(O)c(Cl)c1` [Example 6, 3,5-dichloro-4-hydroxy-N-(4-oxo-3-(4-(trifluoromethyl)benzyl)-3,4-dihydroquinazolin-5-yl)benzamide], no more than 100 nM. As for `O=C(Nc1cccc2ncn(Cc3ccc(F)cc3)c(=O)c12)c1cc(Cl)c(O)c(Cl)c1` [Example 7, 3,5-dichloro-N-(3-(4-fluorobenzyl)-4-oxo-3,4-dihydroquinazolin-5-yl)-4-hydroxybenzamide], the figure is 100 to 500 nM. As for `O=C(Nc1cccc2ncn(Cc3ccc(OC(F)(F)F)cc3)c(=O)c12)c1cc(Cl)c(O)c(Cl)c1` [Example 8, 3,5-dichloro-4-hydroxy-N-(4-oxo-3-(4-(trifluoromethoxy)benzyl)-3,4-dihydroquinazolin-5-yl)benzamide], the figure is 100 to 500 nM; as for `O=C(Nc1cccc2ncn(Cc3ccccc3F)c(=O)c12)c1cc(Cl)c(O)c(Cl)c1` [Example 9, 3,5-dichloro-N-(3-(2-fluorobenzyl)-4-oxo-3,4-dihydroquinazolin-5-yl)-4-hydroxybenzamide], 100 to 500 nM. Consider `O=C(Nc1cccc2ncn(Cc3cccc(OC(F)(F)F)c3)c(=O)c12)c1cc(Cl)c(O)c(Cl)c1` [Example 10, 3,5-dichloro-4-hydroxy-N-(4-oxo-3-(3-(trifluoromethoxy)benzyl)-3,4-dihydroquinazolin-5-yl)benzamide], for which the 50% inhibitory concentration (IC50) is no more than 100 nM. With `O=C(Nc1cccc2ncn(Cc3cccc(C(F)(F)F)c3)c(=O)c12)c1cc(Cl)c(O)c(Cl)c1` [Example 11, 3,5-dichloro-4-hydroxy-N-(4-oxo-3-(3-(trifluoromethyl)benzyl)-3,4-dihydroquinazolin-5-yl)benzamide], the IC50 is no more than 100 nM.

Regarding `C[C@@H](c1cccc(F)c1)n1cnc2cccc(NC(=O)c3cc(Cl)c(O)c(Cl)c3)c2c1=O` [Example 12, (S)-3,5-dichloro-N-(3-(1-(3-fluorophenyl)ethyl)-4-oxo-3,4-dihydroquinazolin-5-yl)-4-hydroxybenzamide], the IC50 was no more than 100 nM. Take `O=C(Nc1cccc2ncn(Cc3ccncc3F)c(=O)c12)c1cc(Cl)c(O)c(Cl)c1` [Example 13, 3,5-dichloro-N-(3-((3-fluoropyridin-4-yl)methyl)-4-oxo-3,4-dihydroquinazolin-5-yl)-4-hydroxybenzamide]: the IC50 was in the range of 500 to 1000 nM.

`O=C(Nc1cccc2ncn(Cc3nncs3)c(=O)c12)c1cc(Cl)c(O)c(Cl)c1` [Example 14, N-(3-((1,3,4-thiadiazol-2-yl)methyl)-4-oxo-3,4-dihydroquinazolin-5-yl)-3,5-dichloro-4-hydroxybenzamide]: the IC50 was 1000 to 10000 nM.

For the compound `O=C(Nc1cccc2ncn(Cc3cocn3)c(=O)c12)c1cc(Cl)c(O)c(Cl)c1` [Example 15, 3,5-dichloro-4-hydroxy-N-(3-(oxazol-4-ylmethyl)-4-oxo-3,4-dihydroquinazolin-5-yl)benzamide], the IC50 was in the range of 500 to 1000 nM.

`O=C(Nc1cccc2ncn(Cc3cccc(F)c3)c(=O)c12)c1cc(Cl)c(O)c(Cl)c1` [Example 16, 3,5-dichloro-N-(3-(3-fluorobenzyl)-4-oxo-3,4-dihydroquinazolin-5-yl)-4-hydroxybenzamide] returned an IC50 of 100 to 500 nM. The value for `O=C(Nc1cccc2ncn(Cc3ccncc3)c(=O)c12)c1cc(Cl)c(O)c(Cl)c1` [Example 17, 3,5-dichloro-4-hydroxy-N-(4-oxo-3-(pyridin-4-ylmethyl)-3,4-dihydroquinazolin-5-yl)benzamide] was 1000 to 10000 nM; that for `O=C(Nc1cccc2ncn(Cc3ccccc3C(F)(F)F)c(=O)c12)c1cc(Cl)c(O)c(Cl)c1` [Example 18, 3,5-dichloro-4-hydroxy-N-(4-oxo-3-(2-(trifluoromethyl)benzyl)-3,4-dihydroquinazolin-5-yl)benzamide] was no more than 100 nM.

As to `O=C(Nc1cccc2ncn(Cc3ccc(C(F)(F)F)nc3)c(=O)c12)c1cc(Cl)c(O)c(Cl)c1` [Example 19, 3,5-dichloro-4-hydroxy-N-(4-oxo-3-((6-(trifluoromethyl)pyridin-3-yl)methyl)-3,4-dihydroquinazolin-5-yl)benzamide], the IC50 lay in the range of 100 to 500 nM. The value for `O=C(Nc1cccc2ncn(C3(c4ccccc4)CC3)c(=O)c12)c1cc(Cl)c(O)c(Cl)c1` [Example 20, 3,5-dichloro-4-hydroxy-N-(4-oxo-3-(1-phenylcyclopropyl)-3,4-dihydroquinazolin-5-yl) benzamide] was 1000 to 10000 nM. Regarding `O=C(Nc1cccc2ncn(C3(c4ccccc4F)CC3)c(=O)c12)c1cc(Cl)c(O)c(Cl)c1` [Example 21, 3,5-dichloro-N-(3-(1-(2-fluorophenyl)cyclopropyl)-4-oxo-3,4-dihydroquinazolin-5-yl)-4-hydroxybenzamide], the IC50 was no more than 100 nM. Turning to `O=C(Nc1cccc2ncn(Cc3cccc(F)c3)c(=O)c12)c1cc(Cl)c(O)c(Cl)n1` [Example 22, 4,6-dichloro-N-{3-[(3-fluorophenyl)methyl]-4-oxo-3,4-dihydroquinazolin-5-yl}-5-hydroxypyridine-2-carboxamide], the IC50 was no more than 100 nM.

In the case of `O=C(Nc1cccc2ncn(Cc3ccccc3OC(F)(F)F)c(=O)c12)c1cc(Cl)c(O)c(Cl)n1` [Example 23, 4,6-dichloro-5-hydroxy-N-(4-oxo-3-{[2-(trifluoromethoxy)phenyl]methyl}-3,4-dihydroquinazolin-5-yl)pyridine-2-carboxamide], the IC50 was 100 to 500 nM.
